According to patent US6573253B2, “Methods for the administration of amifostine and related compounds” (MedImmune Oncology Inc., priority 1997, dated 2003):
Where “and” joins values, the source holds several entries; their conditions need not be identical. Equal values may be shown once. Read-outs that look alike come from different tables or passages of the source.

Tests used:
[1] = human, in vivo
Protocol: All subjects were sequestered at the study site from the evening before the administration of the first dose of study drug until the final whole blood sample was obtained.
Blood samples (5 to 7 mL each) were collected either by venipuncture or indwelling venous catheter (IVC) heparin lock. If IVC was used, it was inserted in the arm opposite the infusion site. […] For either line, the first 3 to 5 cc of blood were discarded (void volume) prior to blood collection.
To prevent further oxidation of WR-1065, PCA/EDTA was added to the samples prior to centrifugation. Because PCA/EDTA ruptures the cellular content of the blood, the samples were centrifuged for a longer period of time to prevent contamination/metabolism of the active metabolite. Consequently, only the clear supernatant (serum) was used for analysis of WR-1065. In contrast, no PCA/EDTA was added to the blood samples designated for analysis of the parent drug; therefore, plasma samples were prepared for analysis of the parent drug.
WINNONLIN, the WINDOWS version of PCNONLIN, was used for the determination of pharmacokinetic parameters for each subject following each route of administration. Non-compartmental modelling of the data was performed.
AUCs were calculated using extrapolation according to a straightline from the last non-zero point.
The AUCs were then analyzed using an analysis of variance (ANOVA) model with route, period and subject as variables. Sequence was not included in the model as this variable was uniquely determined by route and period. The confidence interval on the ratio of the subcutaneous or oral route to the intravenous route was calculated using the mean square error from the entire ANOVA model.

[2] = test system: radiation-induced xerostomia; details: IV Amifostine + RT, cited from earlier work
[3] = test system: radiation-induced xerostomia
Protocol: In the phase II study all patients were undergoing radiation therapy for histologically confirmed squamous cell carcinoma of the head and neck region. Patients were allowed to enter the study following surgery with curative intent as soon as the wound has healed but no later than 12 weeks post operatively.
Blood pressure and pulse were obtained prior to subcutaneous administration and repeated 10 minutes following administration. An IV was available to treat hypotension if it occurred. Patients received full supportive care including antiemetics, antibiotics, transfusions of blood and blood products, and the like when needed. Prophylactic antiemetics were not administered. If patients experienced nausea and vomiting they were administered either prochlorperazine, 10 mg PO, 30 minutes prior to therapy, repeating every 4 to 6 hours following therapy as needed or ondansetron, 8 mg PO, 30 minutes prior to therapy, repeating every 4 hours following therapy as needed.
Radiation therapy was provided with linear accelerators with appropriate photon and electron boosting to the nodes or Cobalt 60. The appropriate photon energy was based on optimizing the radiation therapy dose distribution within the target volume and minimizing dose to normal tissue. Patients were reproducibly mobilized and radio-opaque markers were used to delineate the extent of nodal disease and, where possible, the primary tumor. All fields were treated once daily at 1.8-2.0 Gy per fraction, five days per week to a total dose of:
Xerostomia was graded in each subject according to the RTOG criteria.

[4] = test system: Bone marrow progenitor cells; test: In vitro colony formation (CFU-GEMM, BFU-E, CFU-GM) of bone marrow progenitor cells from treated MDS patients, methylcellulose assays; assay type: cell-based, human; details: bone marrow progenitor cells from MDS patients after s.c. amifostine
Protocol: (§1) Blood pressure was monitored before treatment and after the first dose at 30 minute intervals for up to 90 minutes. […] At least three patients were treated with each dose. […] Hematologic responses to treatment were evaluated by measuring neutrophil count (ANC), platelet count, erythroid response including hemoglobin levels and reticulocyte count, and in vitro colony formation.
Bone marrow progenitor cells were recovered from the treated patients and assayed for their ability to form CFU-GEMM, BFU-E and CFU-GM colonies in standard methylcellulose assays.

[5] = test system: MDS; test: Subcutaneous amifostine in MDS patients: hematologic responses and adverse effects; assay type: in vivo, human
Source text: All patients in the study had MDS and were diagnosed as having one of the following subtypes: refractory anemia, refractory anemia with ring sideroblasts, refractory anemia with excess blasts or refractory anemia with excess blasts in transformation. In addition, the patients had thrombocytopenia (platelets <100,000/μl), neutropenia (ANC or absolute neutrophil count<1500/μl) or a hemoglobin untransfused <10 g/dl and/or were transfusion-dependent as defined by requiring at least 4 units of RBC in the 10 weeks prior to entry.
as §1

[6] = Phase I three-way crossover study: safety assessments / adverse events (NCI Common Toxicity Criteria)
Protocol: If hypotension occurred, the subject was to receive a rapid infusion of 500 mL normal saline and was to be kept supine or in the Trendelenburg position until blood pressure returned to baseline. During this time, blood pressure was monitored every 3 minutes.
All subjects who had received at least one dose of protocol therapy were considered evaluable for safety. […] Toxicity was based on National Cancer Institute (NCI) Common Toxicity Criteria.
Because this was a crossover study to be performed on three successive days, toxicities were assigned to the route of administration on the day the toxicity occurred. A full nonparametric crossover model (likelihood of ratio test) was used to assess toxicities which corrected for period and sequence effects. A PROC CATMOD of SAS@ was used for this analysis.

[7] = test system: radiation-induced mucositis; test: Radiation-induced mucositis model, inferior lip of mice (Parkins et al.): body weight, mucosal erythema and edema scores; details: for Erythema (score) / Oedema (score): individual mice and Mean
[8] = test system: mucositis; test: Rat RT model: mucosal radioprotection by IV or SC amifostine at various times before 15.3 Gy head and neck irradiation (mucositis score); assay type: in vivo; details: rats, 200 mg/kg (1200 mg/m^2), given up to 4 hours prior to radiation therapy (15.3 Gy)
Protocol: A rat RT model was used to examine the protective effects of amifostine following IV as well as subcutaneous (SC) administration, and to investigate the length of time between amifostine administration and RT. In these experiments, rats were given 200 mg/kg (1200 mg/m^2) of amifostine IV or SC, and their head and neck regions exposed to 15.3 Gy of gamma irradiation at various times following amifostine administration. For 10 days after treatment, the rats were weighed and the oral cavities of the rats were examined for signs of mucositis. Mucosal erythema and mucosal edema were scored according to 0-5 and 0-2 scales, respectively, with the scores added to indicate overall mucositis.

[9] = cited from earlier work
[10] = SC amifostine, head and neck cancer patients
[11] = MDS patients, s.c. 500 mg once/day, 17 evaluable
[12] = Intravenous 200 mg/m^2, N = 12, table cells give subject numbers
[13] = Intravenous 200 mg/m^2, N = 12, table cells give subject numbers, listed as amifostine
[14] = Oral 500 mg, N = 12, table cells give subject numbers
[15] = Amifostine (l.p.) at 200 mg/kg + Irradiation (16.5 Gy), day 6 after treatment, 200 mg/kg
[16] = Amifostine (l.p.) at 200 mg/kg + Irradiation (16.5 Gy), day 7 after treatment, 200 mg/kg
[17] = Amifostine (l.p.) at 200 mg/kg + Irradiation (16.5 Gy), day 13 after treatment, 200 mg/kg
[18] = Amifostine (l.p.) at 200 mg/kg + Irradiation (16.5 Gy), day 14 after treatment, 200 mg/kg
[19] = Amifostine (l.p.) at 400 mg/kg + Irradiation (16.5 Gy), day 13 after treatment, 400 mg/kg
[20] = Amifostine (l.p.) at 400 mg/kg + Irradiation (16.5 Gy), day 14 after treatment, 400 mg/kg
[21] = Amifostine (s.c.) at 200 mg/kg + Irradiation (16.5 Gy), day 9 after treatment, 200 mg/kg
[22] = Amifostine (s.c.) at 400 mg/kg + Irradiation (16.5 Gy), day 14 after treatment, 400 mg/kg
[23] = intravenous, cancer patients, plasma

NCCCNCCSP(=O)(O)O [Amifostine, S-2-(3-aminopropylamino)ethyl dihydrogen phosphorothioate]
time after administration at which concentration dropped below 10 μM, amifostine (parent drug plus active metabolite) ([1]; iv): 45 min
time after administration at which concentration dropped below 10 μM, amifostine (parent drug) ([1]; iv): approximately 30 minutes
time after administration at which concentration dropped below 1.0 μM, amifostine (parent drug plus active metabolite) ([1]; po): 10 to 13 min
time after administration at which concentration fell below 10 μM, amifostine (parent drug plus active metabolite) ([1]; sc): approximately 50 minutes
time after administration at which concentration fell below 10 μM, amifostine (parent drug) ([1]; sc): approximately 45 minutes
peak levels (maximum whole blood concentration) ([1]; male, iv): about 100 μM
AUC of Combined (parent drug and active metabolite), 500 mg Oral (PO) ([1]; male, po): 0 µM·min
maximum blood levels ([1]; male, sc): about 12 μM
time to maximum and sustained whole blood concentration ([1]; male, sc): 15 to 45 min
≧Grade 2 acute xerostomia Incidence, All patients ([2]; 200 mg/m^2 3 minute infusion 15 to 30 minutes before RT, N 148): 51%
≧Grade 2 acute xerostomia Incidence, Patients receiving ≧60 Gy RT ([2]; 200 mg/m^2): 51%
≧Grade 2 acute xerostomia, Median cumulative RT dose to onset ([2]; 200 mg/m^2): 60 Gy
≧Grade 2 acute xerostomia, Median time to onset ([2]; 200 mg/m^2): 45 days
rate of acute xerostomia with subcutaneous versus IV amifostine ([3]; SC amifostine + RT): comparable rate
Grade 3 hypotension [3, 10]: no reports
Grade 3 nausea/vomiting [3, 10]: no reports
formation of CFU-GEMM, BFU-E and CFU-GM colonies [4]: produced bone marrow colonies
Platelet response, patients with >50,000/μl: Responders (number) ([5]; 3 evaluable): 3
Platelet response, patients with >50,000/μl: Responders (percent) ([5]; 3 evaluable): 100%
BM Blasts ↑ (RAEB): patients (number; RAEB-t, AML) ([5]; 5 evaluable): 2 (RAEB-t, AML)
Platelet response, patients with <50,000/μl: Responders (number) ([5]; 6 evaluable): 0
Hemoglobin >1.5 g/dl ↑: Responders (number) ([5]; 7 evaluable): 1
Ring Sideroblast ↓: Responders (number) ([5]; 7 evaluable): 3
ANC response, patients with ANC < 1000: Responders (number) ([5]; 8 evaluable): 3
ANC response, patients with ANC < 1000: Responders (percent) ([5]; 8 evaluable): 38.5%
ANC response, patients with ANC > 1000: Responders (number) ([5]; 9 evaluable): 2
ANC response, patients with ANC > 1000: Responders (percent) ([5]; 9 evaluable): 22%
Platelets ≧ 50% ↑: Responders (number) ([5]; 9 evaluable): 3
Platelets ≧ 50% ↑: Responders (percent) ([5]; 9 evaluable): 33%
RBC Transfusion (≦50% ↓): Responders (number) ([5]; 13 evaluable): 0
Retic count ≧ 50% ↑: Responders (number) ([5]; 14 evaluable): 10
Retic count ≧ 50% ↑: Responders (percent) ([5]; 14 evaluable): 71%
ANC ≧ 50% ↑: Responders (number) [5, 11]: 5
ANC ≧ 50% ↑: Responders (percent) [5, 11]: 29%
fatigue (grade I/II): patients ([5]; MDS patients, s.c. amifostine): four patients
local reaction (grade III): patients ([5]; MDS patients, s.c. amifostine): one patient
metallic taste (grade I/II): patients ([5]; MDS patients, s.c. amifostine): one patient
nausea (grade I/II): patients ([5]; MDS patients, s.c. amifostine): one patient
rash (grade I/II): patients ([5]; MDS patients, s.c. amifostine): six patients
vomiting (grade I/II): patients ([5]; MDS patients, s.c. amifostine): one patient
Headache: subjects who reported the adverse event [6, 12]: 1008
Hypotension: subjects who reported the adverse event [6, 12]: 1003
Lightheadedness: subjects who reported the adverse event [6, 12]: 1003
Somnolence: subjects who reported the adverse event [6, 12]: 1008
Vomiting: subjects who reported the adverse event [6, 12]: 1008
Hypotension: subjects who reported the adverse event [6, 13]: one subject
Nausea: subjects who reported the adverse event [6, 13]: five subjects
Vomiting: subjects who reported the adverse event [6, 13]: one subject
Hypotension: subjects who reported the adverse event [6, 14]: 1003
Lightheadedness: subjects who reported the adverse event [6, 14]: 1003
Hypotension: subjects who reported the adverse event ([6]; Oral 500 mg, N = 12, table cells give subject numbers, listed as amifostine): one subject
incidence of hypotension ([6]; Subcutaneous 500 mg, N = 12): no incidence
Nausea: subjects who reported the adverse event ([6]; Subcutaneous 500 mg, N = 12, table cells give subject numbers): 1002
Nausea: subjects who reported the adverse event ([6]; Subcutaneous 500 mg, N = 12, table cells give subject numbers, listed as amifostine): one subject
Grade 2 or higher laboratory toxicity (NCI Common Toxicity Criteria) ([6]; after last dose, 12 subjects): none of the subjects
serum creatinine value, Subject 1010 ([6]; after last dose, baseline 0.90 mg/dL, reference range 0.70 to 1.40 mg/dL): 0.60 mg/dL
changes in physical examination, weight and vital signs ([6]; after the last dose of amifostine): No remarkable changes
severity of adverse events ([6]; all three routes): mild in severity, transient
discontinuation due to adverse events ([6]; all three routes, 12 subjects): No subject discontinued
subjects who reported adverse events ([6]; intravenous amifostine, 12 subjects): Five subjects
subjects who reported adverse events ([6]; oral amifostine, 12 subjects): one subject
tolerability ([6]; regardless of route of administration): well tolerated
subjects who reported adverse events ([6]; subcutaneous amifostine, 12 subjects): one subject
Erythema (score) [7, 15]: 0.5 and 0
Oedema (score) [7, 15]: 1 and 0 and 0.5
Erythema (score) [7, 16]: 0.5 and 0
Oedema (score) [7, 16]: 1 and 0 and 0.5
Oedema (score) ([7]; Amifostine (l.p.) at 200 mg/kg + Irradiation (16.5 Gy), day 12 after treatment, 200 mg/kg): 2 and 1 and 0.5
Erythema (score) [7, 17]: 0.5 and 2 and 1
Oedema (score) [7, 17]: 0.5 and 2 and 1
Erythema (score) [7, 18]: 0.5 and 2 and 1 and 0
Oedema (score) [7, 18]: 0.5 and 2 and 1 and 0
Oedema (score) ([7]; Amifostine (l.p.) at 400 mg/kg + Irradiation (16.5 Gy), day 6 after treatment, 400 mg/kg): 0.5 and 0
Oedema (score) ([7]; Amifostine (l.p.) at 400 mg/kg + Irradiation (16.5 Gy), day 7 after treatment, 400 mg/kg): 0.5 and 0
Erythema (score) ([7]; Amifostine (l.p.) at 400 mg/kg + Irradiation (16.5 Gy), day 12 after treatment, 400 mg/kg): 3 and 1 and 2
Erythema (score) [7, 19]: 0 and 0.5
Oedema (score) [7, 19]: 0.5 and 0
Erythema (score) [7, 20]: 0 and 0.5
Oedema (score) [7, 20]: 0.5 and 0
Erythema (score) ([7]; Amifostine (s.c.) at 200 mg/kg + Irradiation (16.5 Gy), day 7 after treatment, 200 mg/kg): 0 and 0.5
Erythema (score) [7, 21]: 0.5 and 1 and 3
Oedema (score) [7, 21]: 0.5 and 1 and 2
Erythema (score) ([7]; Amifostine (s.c.) at 200 mg/kg + Irradiation (16.5 Gy), day 13 after treatment, 200 mg/kg): 1 and 0.5 and 2
Oedema (score) ([7]; Amifostine (s.c.) at 200 mg/kg + Irradiation (16.5 Gy), day 14 after treatment, 200 mg/kg): 0.5 and 1 and 0
Oedema (score) ([7]; Amifostine (s.c.) at 400 mg/kg + Irradiation (16.5 Gy), day 6 after treatment, 400 mg/kg): 1 and 0.5 and 0
Oedema (score) ([7]; Amifostine (s.c.) at 400 mg/kg + Irradiation (16.5 Gy), day 7 after treatment, 400 mg/kg): 0.5 and 0
Erythema (score) ([7]; Amifostine (s.c.) at 400 mg/kg + Irradiation (16.5 Gy), day 13 after treatment, 400 mg/kg): 1 and 0 and 0.5
Erythema (score) [7, 22]: 1 and 0 and 0.5
Oedema (score) [7, 22]: 1 and 0 and 0.5
mucosal edema scores as compared to saline plus irradiation ([7]; both injection methods (i.p., s.c.)): decreased
average erythema score as compared to saline plus irradiation ([7]; i.p and s.c. administration): decreased
reduction in body weight after irradiation ([7]; i.p. or s.c. injection of amifostine, irradiated mice): prevented
effect of increasing the dose from 200 mg/kg to 400 mg/kg ([7]; irradiated mice): minimal additional benefits
efficacy at the time points of maximal adverse effects (day 9 body weight, day 12 erythema and edema) ([7]; subcutaneous, 200 mg/kg): highest efficacy
radioprotection (mucositis) of SC versus IV administration [8]: comparable to IV administration
amifostine remaining in the plasma ([9]; 6 minutes after intravenous administration): Less than 10%
distribution half-life [9, 23]: less than 1 minute
elimination half-life [9, 23]: approximately 9 minutes

NCCCNCCS [WR-1065, 2-[3-aminopropylamino]ethanethiol]
absolute bioavailability of the active metabolite [1]: 0.53
time after administration at which concentration fell below 5 μM, WR-1065 ([1]; iv): approximately 45 minutes
time after administration at which concentration fell below 5 μM, WR-1065 ([1]; sc): approximately 60 minutes
peak levels (maximum whole blood concentration) ([1]; male, iv): about 23 μM
maximum blood levels ([1]; male, sc): ~4 µM
time to maximum and sustained whole blood concentration ([1]; male, sc): 15 to 45 min
